In patent publication US8765771B2, “Condensed pyridine or condensed pyrimidine derivative, and medicinal agent comprising same” (Kowa Co., Ltd., priority 2010, dated 2014) one finds EC50 data, which are given here for 21 compounds.

The assay deals with Hamster pancreatic β cell strain HIT-T15 cells. Kind of assay: Action of promoting insulin secretion (Test Example 1). The format is cell-based. The note with it: Mesocricetus auratus, glucose 2 mM, 1 hour at 37° C., insulin in the supernatant, 0.0001 μM to 10 μM, read-out: EC50 (50% effect concentration, insulin secretion). How it is done: Action of Promoting Insulin Secretion
Hamster pancreatic β cell strain HIT-T15 cells were subcultured by using a Ham's F-12K culture medium containing penicillin (100 unit/mL), streptomycin (100 μg/mL) and 10% fetal bovine serum. The cells were sown on a 24-well cell culture plate, cultured at 37° C. for 48 hours, and washed with a 0.10 albumin KRBH buffer. Subsequently, the cells were allowed to stand in the same buffer at 37° C. for 1 hour. Glucose was added thereto so as to give a final concentration of 2 mM, and the compound of the present invention that had been dissolved in dimethylsulfoxide at a concentration of 1.000-fold of the respective concentrations (from 0.0001 μM to 10 μM at a common ratio of 10) was further added under a condition that the compound was included in an amount of 0.1 volume % in the buffer. After the addition of the compound of the present invention, the cells were allowed to stand at 37° C. for 1 hour, and the concentration of the insulin included in the supernatant was measured by an insulin kit (SCETI Medical Labo K. K.). A hamster insulin standard solution (SHIBAYAGI Co., Ltd.) was used as a standard solution. A control to which only dimethylsulfoxide had been added was used. The results are shown in Table 8 as the 50% effect concentrations (EC50 values, 50% effect concentrations)) of the respective subject compounds. The EC50 values were calculated by using a statistical analysis program, SAS Pre-Clinical Package Ver 5.0 (SAS institute Japan Co., Tokyo).

For `CCc1cnc(N2CCC(c3coc4c(Nc5ccc(S(C)(=O)=O)cc5F)ncnc34)CC2)nc1` [Example 3, 7-[1-(5-ethylpyrimidin-2-yl)piperidin-4-yl]-N-[2-fluoro-4-(methylsulfonyl)phenyl]furo[3,2-d]pyrimidine-4-amine], the EC50 stood at 0.0143 µM. With `CS(=O)(=O)c1ccc(Nc2ncnc3c(C4CCN(C(=O)OCc5ccccc5)CC4)coc23)c(F)c1` [Example 7, benzyl 4-(4-{[2-fluoro-4-(methylsulfonyl)phenyl]amino}furo[3,2-d]pyrimidin-7-yl)piperidine-1-carboxylate], the EC50 was 0.0337 µM. For `CC(C)(C)OC(=O)N1CCC(c2coc3c(N4CCc5cc(S(C)(=O)=O)ccc54)ncnc23)CC1` [Example 24, tert-butyl 4-{4-[5-(methylsulfonyl)indolin-1-yl]furo[3,2-d]pyrimidin-7-yl}piperidine-1-carboxylate] the value was 0.0036 µM.

As to `CC(C)(C)OC(=O)N1CCC(c2coc3c(Oc4ccc(S(C)(=O)=O)cc4)ncnc23)CC1` [Example 40, tert-butyl 4-(4-{4-(methylsulfonyl)phenoxy}furo[3,2-d]pyrimidin-7-yl)piperidine-1-carboxylate], the EC50 worked out at 0.0107 µM. For `CC(C)(C)COC(=O)N1CCC(c2coc3c(Nc4ccc(S(C)(=O)=O)cc4F)ncnc23)CC1` [Example 35, neopentyl 4-(4-{[2-fluoro-4-(methylsulfonyl)phenyl]amino}furo[3,2-d]pyrimidin-7-yl)piperidine-1-carboxylate] the value was 0.0584 µM; for `CS(=O)(=O)c1ccc(Nc2ncnc3c(C4CCN(c5ncc(F)cn5)CC4)coc23)c(F)c1` [Example 4, N-[2-fluoro-4-(methylsulfonyl)phenyl]-7-[1-(5-fluoropyrimidin-2-yl)piperidin-4-yl]furo[3,2-d]pyrimidine-4-amine], 0.0331 µM; for `CS(=O)(=O)c1ccc(Nc2ncnc3c(C4CCN(c5ncc(C(F)(F)F)cn5)CC4)coc23)c(F)c1` [Example 31, N-[2-fluoro-4-(methylsulfonyl)phenyl]-7-{1-[5-(trifluoromethyl)pyrimidin-2-yl]piperidin-4-yl}furo[3,2-d]pyrimidine-4-amine], 0.0045 µM. For `CS(=O)(=O)c1ccc(Nc2ncnc3c(C4CCN(C(=O)OCC(Cl)(Cl)Cl)CC4)coc23)c(F)c1` [Example 36, 2,2,2-trichloroethyl 4-(4-{[2-fluoro-4-(methylsulfonyl)phenyl]amino}furo[3,2-d]pyrimidin-7-yl)piperidine-1-carboxylate] the value was 0.0187 µM; for `CC(C)(OC(=O)N1CCC(c2coc3c(Nc4ccc(S(C)(=O)=O)cc4F)ncnc23)CC1)C(F)(F)F` [Example 33, 1,1,1-trifluoro-2-methylpropan-2-yl 4-(4-{[2-fluoro-4-(methylsulfonyl)phenyl]amino}furo[3,2-d]pyrimidin-7-yl)piperidine-1-carboxylate], 0.0151 µM; for `CS(=O)(=O)c1ccc(Nc2ncnc3c(C4CCN(c5ncc(Cl)cn5)CC4)coc23)c(F)c1` [Example 2, 7-[1-(5-chloropyrimidin-2-yl)piperidin-4-yl]-N-[2-fluoro-4-(methylsulfonyl)phenyl]furo[3,2-d]pyrimidine-4-amine], 0.004 µM. For `CS(=O)(=O)c1ccc(Nc2ncnc3c(C4CCN(S(=O)(=O)C5CC5)CC4)coc23)c(F)c1` [Example 11, 7-[1-(cyclopropylsulfonyl)piperidin-4-yl]-N-[2-fluoro-4-(methylsulfonyl)phenyl]furo[3,2-d]pyrimidine-4-amine] the value was 0.0769 µM. On to `CS(=O)(=O)c1ccc(Nc2ncnc3c(C4CCN(c5ncc(Br)cn5)CC4)coc23)c(F)c1` [Example 5, 7-[1-(5-bromopyrimidin-2-yl)piperidin-4-yl]-N-[2-fluoro-4-(methylsulfonyl)phenyl]furo[3,2-d]pyrimidine-4-amine], for which the EC50 turned out to be 0.0124 µM. For `CC(C)(C)OC(=O)N1CCC(c2coc3c(Nc4ccc(S(C)(=O)=O)cc4F)ncnc23)CC1` [Example 1, Tert-Butyl 4-(4-{[2-fluoro-4-(methylsulfonyl)phenyl]amino}furo[3,2-d]pyrimidin-7-yl)piperidine-1-carboxylate] the value was 0.0053 µM; for `CC(C)(C)OC(=O)N1CCC(c2coc3c(Oc4ccc(S(C)(=O)=O)c(F)c4)ncnc23)CC1` [Example 21, tert-butyl 4-{4-[3-fluoro-4-(methylsulfonyl)phenoxy]furo[3,2,d]pyrimidin-7-yl}piperidine-1-carboxylate], 0.0519 µM.

Regarding `CS(=O)(=O)c1ccc(Nc2ncnc3c(C4CCN(S(=O)(=O)C5CCCCC5)CC4)coc23)c(F)c1` [Example 12, 7-[1-(cyclohexylsulfonyl)piperidin-4-yl]-N-[2-fluoro-4-(methylsulfonyl)phenyl]furo[3,2-d]pyrimidine-4-amine], the EC50 turned out to be 0.0091 µM. To `CS(=O)(=O)c1ccc(Nc2ncnc3c(C4CCN(C(=O)Oc5ccccc5)CC4)coc23)c(F)c1` [Example 37, phenyl 4-(4-{[2-fluoro-4-(methylsulfonyl)phenyl]amino}furo[3,2-d]pyrimidin-7-yl)piperidine-1-carboxylate] belongs 0.0562 µM; to `CC(C)(C)OC(=O)N1CCC(c2coc3c(Oc4ccc(-n5cnnn5)cc4)ncnc23)CC1` [Example 41, tert-butyl 4-{4-[4-(1H-tetrazol-1-yl)phenoxy]furo[3,2-d]pyrimidin-7-yl}piperidine-1-carboxylate], 0.0429 µM; to `CCc1cnc(N2CCC(c3coc4c(N5CCc6cc(S(C)(=O)=O)ccc65)ncnc34)CC2)nc1` [Example 25, 7-[1-(5-ethylpyrimidin-2-yl)piperidin-4-yl]-4-[5-(methylsulfonyl)indolin-1-yl]furo[3,2-d]pyrimidine], 0.0164 µM.

For `CC(C)OC(=O)N1CCC(c2coc3c(Nc4ccc(S(C)(=O)=O)cc4F)ncnc23)CC1` [Example 8, isopropyl 4-(4-{[2-fluoro-4-(methylsulfonyl)phenyl]amino}furo[3,2-d]pyrimidin-7-yl)piperidine-1-carboxylate], the EC50 turned out to be 0.0835 µM. For `CC(C)(C)OC(=O)N1CCC(c2csc3c(Nc4ccc(S(C)(=O)=O)cc4F)ncnc23)CC1` [Example 27, tert-butyl 4-(4-{[2-fluoro-4-(methylsulfonyl)phenyl]amino}thieno[3,2-d]pyrimidin-7-yl)piperidine-1-carboxylate] the value was 0.0507 µM; for `CS(=O)(=O)c1ccc(Nc2ncnc3c(C4CCN(c5ccc(C(F)(F)F)cn5)CC4)coc23)c(F)c1` [Example 6, N-[2-fluoro-4-(methylsulfonyl)phenyl]-7-{1-[5-(trifluoromethyl)pyridin-2-yl]piperidin-4-yl}furo[3,2-d]pyrimidine-4-amine], 0.0205 µM.
